Where two headings read alike, the source gives them in different places. Starred links: 1 amine or outer side, 2 acyl side, 3 side chain; linkers in the order of their positions; H or OH if unused. Positions of bridges follow the written chain, without caps; N, C: chain ends. Non-standard residues stand in square brackets, D forms with d. Residues, ends and D or L forms follow the SMILES beside them. *: point of attachment. NMeF = CN[C@@H](Cc1ccccc1)C(=O)O; NMeGABA = CN(CCCC(=O)[*:2])[*:1]; NMeI = CC[C@H](C)[C@H](NC)C(=O)O; hPhe = N[C@@H](CCc1ccccc1)C(=O)O; NMeβAla = CN(CCC(=O)[*:2])[*:1]; NMeL = CN[C@@H](CC(C)C)C(=O)O; NMeV = CN[C@H](C(=O)O)C(C)C; NMeAbu = CC[C@H](NC)C(=O)O; NMeA = CN[C@@H](C)C(=O)O; Piperidide = C1CCN(*)CC1; Abu = CC[C@H](N)C(=O)O; NBuGly = CCCCNCC(=O)O; βAla = NCCC(=O)O; Sar = CNCC(=O)O; tBu = CC(C)(C)*
Columns and labels:
[1] = Metabolic stability test: liver microsomal stability assay; assay type: in vitro ADME, mouse; conditions: for microsomal CLint at 1 µM: male, pH 7.4, presence of NADPH, read-out: Mouse Hepatic Microsome CLh,int NADPH(+)
Protocol: Under the presence and absence of NADPH, a microsome solution prepared to a concentration of 0.5 mg protein/mL using 100 mM phosphate buffer (pH 7.4) with mouse liver microsomes (male, Corning Incorporated, USA) and the compound at a concentration of 1 µM were subjected to a metabolic reaction for 22 minutes, 44 minutes, or 66 minutes. Protein removal processing was performed over time using acetonitrile, and the remaining amount of unchanged compound was analyzed using LCMS to calculate the intrinsic hepatic clearance (CLh, int) (Table 6).

[2] = Membrane permeability test using Caco-2 cells with preincubation; assay type: in vitro ADME; conditions: Caco-2
Protocol: (§1) The permeability coefficient (Caco-2 Papp (cm/sec)) is calculated using a numerical expression 1. [Expression 1] Papp = (1)/(C1 (0) × S) × (dQ)/(dt) [formula] dQ/dt represents the permeation rate of drug (the amount of drug appearing on the Basal side per unit time), S represents the total surface area of cells, and C1(0) represents the concentration of drug added on the Apical side.
(§2) Using a mixed medium of FaSSIF containing 1% DMSO and DMEM as the apical medium, and DMEM as the basal medium, Caco-2 cells and peptide compounds are preincubated for 20 to 24 hours under conditions of 5% CO2, 37°C, and 80 rpm. Afterward, the culture medium on the Apical side and the Basal side are aspirated and washed, the peptide compound was added to a FaSSIF/HBSS buffer solution containing 1% DMSO (1% DMSO) (pH 6.0) at the Apical side, a HBSS buffer solution containing 4% BSA (pH 7.4) was added to the Basal side, and measurement of membrane permeability is started. Each well is shaken under 5% CO2 at 37°C and 80 rpm, and at 180 minutes after the start of shaking, a sample on the Basal side is collected. The amount of peptide compounds in the sample was measured using LCMS, and the membrane permeability coefficient was calculated from the permeation amount (Table 7). When calculating the membrane permeability coefficient (Papp) from the permeation amount, the following expression can be used. Papp = (dQ)/(dt) × (1)/(C1 (0) × S) [formula]
(§3) dQ/dt represents the permeation rate of drug (the amount of drug appearing on the Basal side per unit time), C1(0) represents the concentration of drug added on the Apical side, and S represents the total surface area of cells.

Caco-2 cells = experiment: as above; assay type: in vitro ADME
Protocol: as §1, §2, §3

[3] = mouse liver microsomes 0.5 mg protein/mL, compound 1 µM
[4] = mouse liver microsomes 0.5 mg protein/mL, compound 1 µM, absence of NADPH
[5] = preincubation 20 to 24 hours, Apical FaSSIF/HBSS pH 6.0, Basal HBSS 4% BSA pH 7.4, 180 minutes, read-out: Caco2 Papp
[6] = Caco-2 cells, preincubation 20 to 24 hours, apical FaSSIF/HBSS 1% DMSO pH 6.0, basal HBSS 4% BSA pH 7.4, basal sample at 180 minutes

Compound | microsomal CLint at 1 µM [1, 3] [µL/min/mg] | Mouse Hepatic Microsome CLh,int NADPH(-) [1, 4] [µL/min/mg Protein] | Papp A→B [2, 5] [×10⁻⁶ cm/s] | Caco2 Papp (10^-6 cm/sec) (Caco-2 cells; [6]) | Mouse Hepatic Microsome CLh,int NADPH(-) [1] [µL/min/mg Protein] | Papp A→B [2] [×10⁻⁶ cm/s] | Caco2 Papp (10^-6 cm/sec) (Caco-2 cells; Caco-2)
CC[C@H](C)[C@@H]1NC(=O)[C@H](COC(C)(C)C)NC(=O)[C@H]([C@@H](C)O)NC(=O)[C@H](Cc2ccccc2)N(C)C(=O)[C@H](C)N(C)C(=O)[C@H](CC(C)C)N(C)C(=O)[C@H](CCc2ccccc2)NC(=O)[C@@H]2CCCN2C(=O)[C@H]([C@@H](C)CC)NC(=O)[C@H](CC(C)C)N(C)C(=O)[C@H](C)NC(=O)CCCN(C)C(=O)C[C@@H](C(=O)N2CCCCC2)NC(=O)[C@H](CC(C)C)N(C)C1=O [pd022] ([NMeGABA]A[NMeL]IP[hPhe][NMeL][NMeA][NMeF]TS(tBu)I[NMeL]D-Piperidide; lactam N-14) | 44.4 | 36.4 | 0.15 | 0.15 10^-6 cm/sec |  |  | 
CC[C@@H]1NC(=O)[C@H](CC(C)C)N(C)C(=O)[C@H](C)NC(=O)[C@@H]2CCCN2C(=O)[C@H]([C@@H](C)CC)NC(=O)[C@H](CC(C)C)N(C)C(=O)[C@H](CCc2ccccc2)NC(=O)CCCN(C)C(=O)C[C@@H](C(=O)N2CCCCC2)NC(=O)[C@H](CC(C)C)N(C)C(=O)[C@H]([C@@H](C)CC)NC(=O)[C@H](C)N(C)C(=O)[C@H]([C@@H](C)O)NC(=O)[C@H](Cc2ccccc2)N(C)C1=O [pd023] ([NMeGABA][hPhe][NMeL]IPA[NMeL][Abu][NMeF]T[NMeA]I[NMeL]D-Piperidide; lactam N-14) | 43.3 | 26.2 | 0.03 | 0.03 10^-6 cm/sec |  |  | 
CC[C@H](C)[C@H]1C(=O)NCCC(=O)N(C)[C@@H](CC(C)C)C(=O)N[C@H](C(=O)N2CCCCC2)CC(=O)N(C)[C@@H](C)C(=O)N[C@@H](CC(C)C)C(=O)N[C@@H]([C@@H](C)O)C(=O)N(C)[C@@H](Cc2ccccc2)C(=O)NCCC(=O)N(C)[C@@H](C(C)C)C(=O)N[C@@H](CC(C)C)C(=O)N(C)[C@@H]([C@@H](C)CC)C(=O)N[C@@H](CCc2ccccc2)C(=O)N(C)CC(=O)N1C [pd024] ([NMeA]LT[NMeF][βAla][NMeV]L[NMeI][hPhe][Sar][NMeI][βAla][NMeL]D-Piperidide; lactam N-14) |  |  |  |  | 20.0 | 0.3 | 0.30 10^-6 cm/sec
CC[C@H](C)[C@@H]1NC(=O)[C@H](C)NC(=O)[C@H](C(C)C)N(C)C(=O)[C@H](COC(C)(C)C)NC(=O)[C@H](C)N(C)C(=O)C[C@@H](C(=O)N2CCCCC2)NC(=O)[C@H](C(C)C)NC(=O)[C@H](Cc2ccccc2)N(C)C(=O)[C@H](CC(C)C)N(C)C(=O)[C@H]([C@@H](C)O)NC(=O)[C@H](CC)N(C)C(=O)[C@H](Cc2ccccc2)N(C)C(=O)[C@H](C)NC(=O)[C@@H]2CCCN2C1=O [pd025] ([NMeA]S(tBu)[NMeV]AIPA[NMeF][NMeAbu]T[NMeL][NMeF]VD-Piperidide; lactam N-14) | 14.8 | 15.8 | 0.05 | 0.05 10^-6 cm/sec |  |  | 
CCCCN1CC(=O)N[C@@H]([C@@H](C)CC)C(=O)N(C)[C@@H](CC(C)C)C(=O)N[C@@H](C(C)C)C(=O)N[C@H](C(=O)N2CCCCC2)CC(=O)N(C)[C@@H](C)C(=O)N(C)[C@@H](CC(C)C)C(=O)N[C@@H]([C@@H](C)O)C(=O)N(C)[C@@H](Cc2ccccc2)C(=O)N[C@@H](CC)C(=O)N(C)[C@@H](Cc2ccccc2)C(=O)N[C@@H](C)C(=O)N(C)CCC(=O)N[C@@H](CC(C)C)C1=O [pd026] ([NMeA][NMeL]T[NMeF][Abu][NMeF]A[NMeβAla]L[NBuGly]I[NMeL]VD-Piperidide; lactam N-14) | 63.5 | 29.9 | 0.58 | 0.58 10^-6 cm/sec |  |  | 
CC[C@H](C)[C@@H]1NC(=O)[C@H](CC(C)C)N(C)C(=O)[C@H](CC(C)C)NC(=O)[C@H](C)N(C)C(=O)C[C@@H](C(=O)N2CCCCC2)NC(=O)[C@H](CC(C)C)NC(=O)[C@@H]2CCCN2C(=O)[C@H](CC(C)C)N(C)C(=O)[C@H]([C@@H](C)O)NC(=O)[C@H]([C@@H](C)CC)N(C)C(=O)[C@H](Cc2ccccc2)N(C)C(=O)[C@H](C)NC(=O)[C@H](Cc2ccccc2)N(C)C(=O)[C@H](CC(C)C)NC1=O [pd027] ([NMeA]L[NMeL]IL[NMeF]A[NMeF][NMeI]T[NMeL]PLD-Piperidide; lactam N-14) | 42.4 | 31.1 | 0.02 | 0.02 10^-6 cm/sec |  |  | 
